Measured values published in ChEMBL document CHEMBL6087487, “Discovery of a 2'-α-Fluoro-2'-β-C-(fluoromethyl) Purine Nucleotide Prodrug as a Potential Oral Anti-SARS-CoV-2 Agent” (J Med Chem, 2025).

Legend:
SARS-CoV-2 [1] = test: (§1) Antiviral activity against SARS-CoV-2 20SF107 infected in HPAEpiC cells assessed as inhibition of viral replication pretreated with compound and subsequent introduction of viral infection for 1 hr followed by inoculum removal and compound washout and further treatment with compound for 48 hrs by RT-qPCR analysis; format: functional, organism-based; settings: for EC50: Severe acute respiratory syndrome coronavirus 2, 20SF107, HPAEpiC
SARS-CoV-2 [2] = test: as §1, with “Omicron BA.5” for “20SF107”; format: functional, organism-based; settings: Severe acute respiratory syndrome coronavirus 2, Omicron BA.5, HPAEpiC

Row | Compound | EC50 (SARS-CoV-2 [1]) [nM] | inhibition (SARS-CoV-2 [1]; Severe acute respiratory syndrome coronavirus 2, time 49.0 hrs) | EC50 (SARS-CoV-2 [2]) [nM]
1 | CNc1nc(N)nc2c1ncn2[C@@H]1O[C@H](CO[P@@](=O)(N[C@@H](C)C(=O)OC(C)C)Oc2ccccc2)[C@@H](O)[C@]1(F)CF.O=S(=O)(O)O | 560 | Dose-dependent-effect | 960
2 | CCC(CC)COC(=O)[C@H](C)N[P@](=O)(OC[C@H]1O[C@@](C#N)(c2ccc3c(N)ncnn23)[C@H](O)[C@@H]1O)Oc1ccccc1 [REMDESIVIR] | 910 | – | –
